Experimental data reported in patent US7173063B1, “Topoisomerase poisons for the treatment of proliferative disorders” (Fred Hutchinson Cancer Research Center, priority 2000, dated 2007).

What was measured:
human Topo I = biological target: T1, human Topo I (Homo sapiens, UniProt P11387); experiment: Toxicity in yeast overexpressing human Topo I (hTOP1) or htop1-vac mutant; type: cell-based; conditions: GAL promoter, galactose-induced, vs vector
T1 construct: expressed in transfected cells; host or cells: S. cerevisiae BY4705 (S288C background), plasmid phTOP1 under the GAL promoter, vector pRS416
T1 sequence (P11387 2-765): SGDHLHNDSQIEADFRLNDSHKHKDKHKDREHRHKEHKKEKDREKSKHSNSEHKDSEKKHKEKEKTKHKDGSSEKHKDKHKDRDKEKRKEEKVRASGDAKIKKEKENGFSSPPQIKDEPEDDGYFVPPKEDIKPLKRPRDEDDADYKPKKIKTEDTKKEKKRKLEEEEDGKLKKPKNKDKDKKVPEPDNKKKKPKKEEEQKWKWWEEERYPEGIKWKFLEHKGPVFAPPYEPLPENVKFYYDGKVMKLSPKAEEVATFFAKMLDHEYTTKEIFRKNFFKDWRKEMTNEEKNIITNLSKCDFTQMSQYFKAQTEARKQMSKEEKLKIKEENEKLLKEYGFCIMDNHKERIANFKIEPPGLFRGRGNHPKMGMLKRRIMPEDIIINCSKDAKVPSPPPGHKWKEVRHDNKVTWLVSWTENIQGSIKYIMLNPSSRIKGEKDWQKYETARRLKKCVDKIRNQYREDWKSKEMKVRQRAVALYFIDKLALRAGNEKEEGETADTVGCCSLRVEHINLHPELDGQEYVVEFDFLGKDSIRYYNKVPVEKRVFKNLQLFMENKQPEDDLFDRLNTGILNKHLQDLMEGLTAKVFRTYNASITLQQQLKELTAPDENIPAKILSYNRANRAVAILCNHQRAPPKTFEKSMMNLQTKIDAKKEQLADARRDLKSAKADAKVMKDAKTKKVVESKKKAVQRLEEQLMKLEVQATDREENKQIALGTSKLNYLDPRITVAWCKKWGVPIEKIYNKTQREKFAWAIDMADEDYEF
From the text: The strains are derived from the A364a genetic background, with the exception of BY4705, which is derived from the S288C background. Gene disruptions were generated by PCR fragment directed replacement (Baudin, et al., Nucleic Acids Research 21: 3329–30 (1993), Guldener, et al., Nucleic Acids Research 24: 2519–24 (1996)). Yeast overexpressing topoisomerase II was constructed by a PCR fragment directed promoter replacement of the topoisomerase II promoter with the yeast GPD promoter flanked upstream by the URA3 marker. All strains (except BY4705) bear the pleitropic drug sensitizing mutations erg6, pdr1, and pdr3 (Balzi, et al., Journal of Bioenergetics & Biomembranes 27: 71–6 (1995), Delaveau, et al, Molecular & General Genetics 244: 501–11 (1994), Gaber, et al., Molecular & Cellular Biology 9: 3447–56 (1989), Saunders, et al., Canadian Journal of Genetics & Cytology, 24: 493–503 (1982). Subik, et al, Current Genetics 10: 665–70 (1986)). The haploid yeast strain BY4705 (Brachmann, et al., Yeast 14: 115–32 (1998)) was used in the experiments described in FIG. 5. Plasmids expressing yeast or human topoisomerase I genes under the GAL promoter (Knab, et al., Journal of Biological Chemistry 268: 22322–30 (1993). Knab, et al., Journal of Biological Chemistry 270: 6141–8 (1995)) were transformed into BY4705 using standard procedures. […]

Rat1a fibroblasts = experiment: Effect of co-treatment with hydroxyurea (HU) on toxicity in Rat1a fibroblasts; type: cell-based, rat; conditions: six-hour exposure; 0, 0.25, 0.5 or 1 mM HU
Method: FIG. 6 illustrates the effect of exposure time and hydroxyurea on the toxicity of compound Ia and compound IIa. […] Rat1a fibroblasts were exposed to compound during growth for either four or six hours, the media was changed, then cells were grown for an appropriate period such that total incubation time was 96 hours, and processed as described in the Example below. […] The bar graph insets for each graph show growth inhibition by HU alone.
Cells were plated at a density of 500 cells per well in opaque 96 well plates (Packard) in a volume of 135 μL per well of the appropriate media. The plates were incubated overnight to allow cell adherence. Seven two-fold dilutions of the test compounds were added in a volume of 15 μL per well in triplicate, and 15 μL of media containing an appropriate concentration of DMSO was added to control wells in triplicate. Plates were incubated at 37° C. for 96 hours. The media was then replaced with 100 μL per well of the appropriate media containing 2 μCi/mL of (methyl-^3H) thymidine (Amersham Pharmacia Biotech), then plates were incubated for a further 24 hours at 37° C. Cells were washed three times with PBS, then 100 μL per well of scintillant was added (Microscint 20, Packard), and sealed plates were counted in a microplate reader (Packard Topcount). For suspension chicken cells, (methyl-^3H) thymidine was added directly to the drug-containing media at a concentration of 20 μCi/mL (comprising one tenth of the media volume) and incubated overnight. The suspension cells were transferred to a UniFilter GF/C plate (Packard) and washed with PBS in a plate washer (Packard). After drying, 25 μL per well of scintillant (Microscint 20, Packard) was added, and sealed plates were counted. Toxicity is expressed as a percentage of the control counts. For experiments involving shorter exposures to compounds, cells were grown in the presence of compound for the appropriate time, then the media was replaced with fresh drug-free media, and incubation continued for the remainder of 96 hours, followed by the normal tritiated thymidine uptake and washing protocol.
A six-hour exposure was used to test whether the toxicity of the same set of compounds is dependent on ongoing DNA synthesis. […] Thus, in contrast to camptothecin and topotecan, compounds Ia and IIa show no marked time dependency for toxicity (FIG. 6A) and are not inhibited by HU (FIG. 6B), indicating critical mechanistic differences between these compounds and camptothecin.

| SMILES | effect of hTOP1 overexpression on toxicity (human Topo I) | change of toxicity caused by HU co-treatment (Rat1a fibroblasts) | inhibition of toxicity by co-treatment with HU (Rat1a fibroblasts) |
| --- | --- | --- | --- |
| O=c1c(Cl)c(Cl)cnn1CCCl [compound IIa] | accentuates the toxicity | slight accentuation of toxicity | not inhibited by co-treatment with HU |
| O=C(CCl)Nc1ccc(C(=O)N/N=C/c2ccc(Cl)cc2)cc1 [compound Ia] | Little or no accentuation | slight accentuation of toxicity | not inhibited by co-treatment with HU |
